The source made the active and inactive calls.
Experiments:
[1] = biological target: Glycogen synthase kinase-3 alpha (Homo sapiens, UniProt P49840); experiment: Inhibition of Human GSK-3 alpha Activity Measured in Biochemical System Using Microfluidics - 2063-06_Inhibitor_Dose_DryPowder_Activity. [Related pubchem assays (depositor defined):AID2709]
[2] = biological target: Glycogen synthase kinase-3 beta (Homo sapiens, UniProt P49841); experiment: Inhibition of Human GSK-3 beta Activity Measured in Biochemical System Using Microfluidics - 2063-05_Inhibitor_Dose_DryPowder_Activity. [Related pubchem assays (depositor defined):AID2709]
Chain of Glycogen synthase kinase-3 beta (P49841 whole entry): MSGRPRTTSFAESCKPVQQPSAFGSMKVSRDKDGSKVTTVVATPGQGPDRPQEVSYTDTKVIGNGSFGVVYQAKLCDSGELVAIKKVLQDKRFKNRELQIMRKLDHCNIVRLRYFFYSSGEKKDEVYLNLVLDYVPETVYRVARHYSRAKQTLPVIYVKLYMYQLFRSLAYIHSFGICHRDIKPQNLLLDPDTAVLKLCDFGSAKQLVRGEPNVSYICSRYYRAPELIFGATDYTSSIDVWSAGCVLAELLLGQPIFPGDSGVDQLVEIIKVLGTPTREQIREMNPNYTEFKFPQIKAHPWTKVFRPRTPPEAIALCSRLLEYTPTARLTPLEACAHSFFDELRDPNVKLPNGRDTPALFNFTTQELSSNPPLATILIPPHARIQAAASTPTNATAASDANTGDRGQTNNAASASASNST

[3] = biological target: T1, Calpain-2 catalytic subunit (Sus scrofa, UniProt P43367); experiment: m-calpain protease blockers, concentration series – biochemical, fluorogenic peptide substrate, dose response (AID 1420); assay type: functional
T1 sequence (P43367 whole entry): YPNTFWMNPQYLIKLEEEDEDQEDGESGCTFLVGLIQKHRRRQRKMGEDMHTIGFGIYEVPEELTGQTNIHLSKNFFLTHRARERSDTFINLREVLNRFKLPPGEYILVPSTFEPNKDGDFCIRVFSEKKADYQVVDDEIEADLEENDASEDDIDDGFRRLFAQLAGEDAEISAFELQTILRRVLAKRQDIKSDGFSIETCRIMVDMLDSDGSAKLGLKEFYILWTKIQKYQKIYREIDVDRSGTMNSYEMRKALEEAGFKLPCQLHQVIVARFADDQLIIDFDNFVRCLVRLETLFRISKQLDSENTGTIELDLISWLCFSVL

Escherichia coli [4] = experiment: microbe, parasite or virus in culture
Escherichia coli [5] = experiment: microbe, parasite or virus in culture; remark: listed apart in the source
HEK293 [6] = experiment: HEK293T cell viability loss, resazurin readout – resazurin fluorescence, cytotoxicity control for NF-kB activator project, SAR follow-up (AID 493251); assay type: functional, cell-based; conditions: Homo sapiens
Jurkat [7] = experiment: SAR Analysis of small molecule inhibitors of T-cell specific antigen receptor-induced NF-kB activation in a Jurkat cell line using a luminescence assay - Set 2. [Related pubchem assays (depositor defined):AID435003, AID435012, AID465]; assay type: functional, cell-based; conditions: Homo sapiens
HEK293 [8] = experiment: SAR Analysis of small molecule inhibitors of T-cell specific antigen receptor-induced NF-kB activation in a HEK-293T cell line using a luminescence assay - Set 2. [Related pubchem assays (depositor defined):AID435003, AID435012, AID489026]; assay type: functional, cell-based; conditions: Homo sapiens
[9] = viability of uninfected HEp-2 cells – cell-based, HTS, cytotoxicity control for RSV inhibitor project, dose response (AID 2410); assay type: functional; conditions: human respiratory syncytial virus
[10] = biological target: Dual specificity protein kinase CLK1 (Homo sapiens, UniProt P49759); experiment: inhibition of human CLK1 activity – biochemical, cherry-picked samples, selectivity assay for Dyrk1A inhibitor project, dose response (AID 588811)
Chain of Dual specificity protein kinase CLK1 (P49759 whole entry): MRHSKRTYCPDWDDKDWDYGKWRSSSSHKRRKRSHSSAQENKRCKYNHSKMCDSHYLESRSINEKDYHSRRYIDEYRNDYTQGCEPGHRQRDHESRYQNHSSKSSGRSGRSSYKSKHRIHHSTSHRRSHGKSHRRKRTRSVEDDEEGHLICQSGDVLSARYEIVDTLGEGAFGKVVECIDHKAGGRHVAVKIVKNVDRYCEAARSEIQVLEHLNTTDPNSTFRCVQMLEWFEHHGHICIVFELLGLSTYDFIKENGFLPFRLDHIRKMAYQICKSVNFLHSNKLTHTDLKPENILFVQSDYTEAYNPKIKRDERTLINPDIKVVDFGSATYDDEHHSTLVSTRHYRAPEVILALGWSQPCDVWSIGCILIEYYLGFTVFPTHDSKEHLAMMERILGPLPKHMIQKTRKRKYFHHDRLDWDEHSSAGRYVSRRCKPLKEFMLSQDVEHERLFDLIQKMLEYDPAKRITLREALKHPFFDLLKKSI

[11] = biological target: Dual specificity tyrosine-phosphorylation-regulated kinase 1A (Rattus norvegicus, UniProt Q63470); assay type: biochemical, Homo sapiens
[12] = biological target: Delta-type opioid receptor (Homo sapiens, UniProt P41143); experiment: Counterscreen for agonists of heterodimerization of the mu 1 (OPRM1) and delta 1 (OPRD1) opioid receptors: Luminescence-based cell-based high throughput dose response assay to identify agonists of OPRD1 homodimerization. [Related pubchem assays (depositor defined):AID504326, AID504355, AID504692, AID504904, AID504905]; assay type: functional
Chain of Delta-type opioid receptor (P41143 whole entry): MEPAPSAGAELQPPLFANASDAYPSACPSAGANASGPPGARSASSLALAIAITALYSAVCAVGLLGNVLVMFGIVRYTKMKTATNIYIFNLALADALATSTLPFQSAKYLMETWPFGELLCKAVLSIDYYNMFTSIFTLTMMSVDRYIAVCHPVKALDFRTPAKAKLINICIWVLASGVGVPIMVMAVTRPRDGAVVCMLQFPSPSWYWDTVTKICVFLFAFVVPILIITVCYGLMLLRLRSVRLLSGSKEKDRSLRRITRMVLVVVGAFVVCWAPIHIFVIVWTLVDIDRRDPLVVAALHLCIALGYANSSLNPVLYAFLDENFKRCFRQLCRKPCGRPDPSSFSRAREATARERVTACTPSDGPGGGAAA

Mu-type opioid receptor = Mu-type opioid receptor (Homo sapiens, UniProt P35372); experiment: Counterscreen for agonists of heterodimerization of the mu 1 (OPRM1) and delta 1 (OPRD1) opioid receptors: Luminescence-based cell-based high throughput dose response assay to identify agonists of OPRM1 homodimerization.; assay type: functional;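 also: U2OS cells expressing OPRM1 and beta-arrestin as split beta-galactosidase partners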
Chain of Mu-type opioid receptor (P35372 whole entry): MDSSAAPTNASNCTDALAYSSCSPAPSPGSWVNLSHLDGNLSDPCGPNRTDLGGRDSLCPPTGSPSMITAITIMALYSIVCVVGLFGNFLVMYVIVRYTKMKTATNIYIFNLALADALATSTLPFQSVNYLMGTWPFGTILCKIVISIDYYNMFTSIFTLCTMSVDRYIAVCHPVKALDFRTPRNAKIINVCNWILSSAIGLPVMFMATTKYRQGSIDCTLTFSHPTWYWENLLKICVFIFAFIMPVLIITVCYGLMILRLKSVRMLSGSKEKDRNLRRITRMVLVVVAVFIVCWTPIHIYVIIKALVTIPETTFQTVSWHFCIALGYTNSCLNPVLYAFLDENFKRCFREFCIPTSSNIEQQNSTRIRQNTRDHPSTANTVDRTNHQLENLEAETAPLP

[13] = biological target: 5-hydroxytryptamine receptor 5A (Homo sapiens, UniProt P47898); experiment: Counterscreen for agonists of OPRM1-OPRD1 heterodimerization: luminescence-based cell-based high throughput dose response assay to identify agonists of 5-hydroxytryptamine (serotonin) 5A receptor (HTR5A). [Related pubchem assays (depositor defined):AID504326, AID504355, AID504692, AID504904, AID504905]; assay type: functional
Chain of 5-hydroxytryptamine receptor 5A (P47898 whole entry, the tested form may be a part): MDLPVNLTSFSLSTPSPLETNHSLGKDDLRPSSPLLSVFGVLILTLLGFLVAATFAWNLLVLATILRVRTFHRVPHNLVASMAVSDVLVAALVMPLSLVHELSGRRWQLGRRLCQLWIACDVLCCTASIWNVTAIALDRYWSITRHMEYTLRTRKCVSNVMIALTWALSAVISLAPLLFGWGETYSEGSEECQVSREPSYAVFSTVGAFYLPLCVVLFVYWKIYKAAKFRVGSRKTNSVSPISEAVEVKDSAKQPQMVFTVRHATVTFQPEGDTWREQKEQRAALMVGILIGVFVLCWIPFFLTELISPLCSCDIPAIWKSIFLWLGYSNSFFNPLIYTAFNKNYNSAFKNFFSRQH

[14] = blockers of HIV-1 envelope-mediated cell-cell fusion – cherry-pick, dose response (AID 652057); assay type: functional, cell-based
[15] = viability loss in CEM21 cells – cell-based, CellTiter-Glo luminescence, cherry-picked, cytotoxicity control for viral fusion inhibitor project, dose response (AID 652042); assay type: functional;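 also: potency for signal decrease meaning cytotoxicity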
Paired box protein Pax-8 = Paired box protein Pax-8 (Homo sapiens, UniProt Q06710); experiment: PAX8 transcriptional activity inhibition in RMG-I – RMG-I cells, luciferase, cherry-pick, dose response (AID 687027); assay type: functional, cell-based;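 also: luciferase reporter driven by Pax8 target thyroperoxidase promoter measured by SteadyGlo luminescence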
Cytochrome P450 2D6 = Cytochrome P450 2D6 (Homo sapiens, UniProt P10635);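 also: CYP2D6 member of a cytochrome P450 panel assay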
Chain of Cytochrome P450 2D6 (P10635 whole entry): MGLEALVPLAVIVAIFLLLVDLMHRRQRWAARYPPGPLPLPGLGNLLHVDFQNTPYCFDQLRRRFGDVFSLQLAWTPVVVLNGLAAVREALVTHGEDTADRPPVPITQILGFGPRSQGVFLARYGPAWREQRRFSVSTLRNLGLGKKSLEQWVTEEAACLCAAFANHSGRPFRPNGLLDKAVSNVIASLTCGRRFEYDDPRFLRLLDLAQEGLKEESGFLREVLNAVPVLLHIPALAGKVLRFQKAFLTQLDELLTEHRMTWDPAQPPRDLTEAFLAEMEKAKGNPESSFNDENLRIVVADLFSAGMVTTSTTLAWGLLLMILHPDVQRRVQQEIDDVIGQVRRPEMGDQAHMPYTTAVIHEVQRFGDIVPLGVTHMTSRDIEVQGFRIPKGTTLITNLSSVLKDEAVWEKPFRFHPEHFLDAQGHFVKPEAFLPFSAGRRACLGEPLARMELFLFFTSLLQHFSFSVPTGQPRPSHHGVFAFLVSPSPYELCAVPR

[16] = biological target: Voltage-gated inwardly rectifying potassium channel KCNH2 (Homo sapiens, UniProt Q12809); conditions: Potency;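 also: confirmatory quantitative high-throughput screen measuring inhibition of hERG channel activity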
Chain of Voltage-gated inwardly rectifying potassium channel KCNH2 (Q12809 whole entry): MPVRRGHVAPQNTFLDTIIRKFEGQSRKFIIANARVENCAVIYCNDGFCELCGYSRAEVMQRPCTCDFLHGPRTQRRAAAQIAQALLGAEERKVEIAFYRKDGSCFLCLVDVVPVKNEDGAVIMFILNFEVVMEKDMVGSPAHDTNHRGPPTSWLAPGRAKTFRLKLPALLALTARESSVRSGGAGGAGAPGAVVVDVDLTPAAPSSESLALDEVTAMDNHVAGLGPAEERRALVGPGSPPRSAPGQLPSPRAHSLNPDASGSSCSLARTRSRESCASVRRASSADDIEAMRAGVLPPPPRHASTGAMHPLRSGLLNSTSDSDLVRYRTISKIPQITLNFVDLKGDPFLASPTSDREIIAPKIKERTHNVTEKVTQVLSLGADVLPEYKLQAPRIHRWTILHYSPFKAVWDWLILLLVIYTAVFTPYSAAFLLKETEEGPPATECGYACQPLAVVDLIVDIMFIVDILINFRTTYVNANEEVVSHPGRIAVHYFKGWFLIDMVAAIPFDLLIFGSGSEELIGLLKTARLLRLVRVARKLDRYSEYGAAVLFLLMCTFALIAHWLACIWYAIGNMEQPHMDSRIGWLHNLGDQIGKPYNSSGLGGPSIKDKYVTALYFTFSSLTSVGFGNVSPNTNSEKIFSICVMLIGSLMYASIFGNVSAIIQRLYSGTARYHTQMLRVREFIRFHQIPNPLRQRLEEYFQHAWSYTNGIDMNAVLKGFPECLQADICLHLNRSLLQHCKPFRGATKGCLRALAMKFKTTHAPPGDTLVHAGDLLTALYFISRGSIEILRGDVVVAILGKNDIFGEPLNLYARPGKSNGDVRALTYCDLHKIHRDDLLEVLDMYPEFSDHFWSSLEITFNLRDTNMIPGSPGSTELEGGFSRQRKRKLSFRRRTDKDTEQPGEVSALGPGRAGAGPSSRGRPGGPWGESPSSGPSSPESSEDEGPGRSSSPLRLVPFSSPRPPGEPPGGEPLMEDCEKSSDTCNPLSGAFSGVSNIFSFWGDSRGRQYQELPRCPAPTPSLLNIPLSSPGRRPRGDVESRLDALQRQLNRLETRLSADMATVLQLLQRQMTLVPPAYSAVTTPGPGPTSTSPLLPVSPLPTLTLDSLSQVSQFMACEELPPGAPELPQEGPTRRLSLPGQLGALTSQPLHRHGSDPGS

NS3 = NS3 (Hepatitis C virus, UniProt A3EZJ3); experiment: PubChem AID 2173; parameters: species or system Hepacivirus hominis
Chain of NS3 (A3EZJ3 whole entry): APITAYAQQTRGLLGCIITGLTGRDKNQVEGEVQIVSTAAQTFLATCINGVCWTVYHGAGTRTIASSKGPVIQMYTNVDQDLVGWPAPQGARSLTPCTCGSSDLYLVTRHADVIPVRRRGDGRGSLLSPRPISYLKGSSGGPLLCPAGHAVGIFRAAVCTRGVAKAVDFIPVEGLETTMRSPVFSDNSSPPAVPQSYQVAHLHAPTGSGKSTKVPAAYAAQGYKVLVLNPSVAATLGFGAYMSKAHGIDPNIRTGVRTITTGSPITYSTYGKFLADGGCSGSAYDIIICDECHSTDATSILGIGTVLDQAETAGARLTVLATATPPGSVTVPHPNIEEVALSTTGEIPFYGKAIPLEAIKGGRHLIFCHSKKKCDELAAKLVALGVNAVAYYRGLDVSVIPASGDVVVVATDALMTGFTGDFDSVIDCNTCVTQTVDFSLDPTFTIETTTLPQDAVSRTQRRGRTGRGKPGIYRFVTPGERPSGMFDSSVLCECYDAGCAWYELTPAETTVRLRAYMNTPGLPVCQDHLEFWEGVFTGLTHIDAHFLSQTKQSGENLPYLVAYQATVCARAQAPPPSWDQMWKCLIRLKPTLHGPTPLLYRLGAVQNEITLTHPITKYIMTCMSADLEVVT

DNA topoisomerase = biological target: T2, DNA topoisomerase (Yersinia pestis, UniProt A0A2S9PM60); experiment: Yersinia topoisomerase I cleavage product accumulation – biochemical, cherry-pick, dose response (AID 588525)
T2 sequence (A0A2S9PM60 whole entry): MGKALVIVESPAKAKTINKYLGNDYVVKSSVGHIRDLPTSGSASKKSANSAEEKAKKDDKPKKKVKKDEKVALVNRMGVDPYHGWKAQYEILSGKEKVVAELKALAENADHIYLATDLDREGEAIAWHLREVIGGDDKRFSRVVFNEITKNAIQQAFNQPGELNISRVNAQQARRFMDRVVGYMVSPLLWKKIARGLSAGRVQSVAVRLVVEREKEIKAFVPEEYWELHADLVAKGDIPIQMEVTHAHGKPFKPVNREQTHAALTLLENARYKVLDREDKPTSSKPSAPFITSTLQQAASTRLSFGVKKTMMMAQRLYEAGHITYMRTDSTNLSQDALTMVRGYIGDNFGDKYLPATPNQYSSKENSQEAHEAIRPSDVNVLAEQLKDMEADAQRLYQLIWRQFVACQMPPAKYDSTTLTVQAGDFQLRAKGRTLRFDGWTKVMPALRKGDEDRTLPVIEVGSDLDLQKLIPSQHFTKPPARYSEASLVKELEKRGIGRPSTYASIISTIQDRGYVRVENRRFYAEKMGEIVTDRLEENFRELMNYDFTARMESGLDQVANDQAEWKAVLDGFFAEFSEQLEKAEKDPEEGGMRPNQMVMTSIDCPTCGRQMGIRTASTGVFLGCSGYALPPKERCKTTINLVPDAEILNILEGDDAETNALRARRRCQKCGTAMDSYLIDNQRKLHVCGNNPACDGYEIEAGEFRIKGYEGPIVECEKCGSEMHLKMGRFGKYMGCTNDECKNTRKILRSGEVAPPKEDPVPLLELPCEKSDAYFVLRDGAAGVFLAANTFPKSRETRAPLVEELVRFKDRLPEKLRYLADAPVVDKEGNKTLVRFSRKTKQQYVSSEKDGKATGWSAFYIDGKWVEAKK

Vero = experiment: viability of Vero cells under compound – cytotoxicity control for flavivirus capping enzyme inhibitors (AID 588742); assay type: functional; conditions: Chlorocebus sabaeus
[17] = Late-stage probe development counterscreen for inhibitors of the Hepatitis C Virus non-structural protein 3 helicase (NS3): luminescence-based cell-based dose response assay to determine whether compounds that inhibit replication of HCV RNA replicon are cytotoxic. [Related pubchem assays (depositor defined):AID1800, AID1830, AID1845, AID1943, AID1945, AID2172, AID2173, AID2474, AID2476]; assay type: functional
Genome polyprotein = Genome polyprotein (dengue virus type 2, UniProt P29990); experiment: flavivirus cap methylation enzyme inhibition – biochemical, confirmation dose response, primary screen (AID 588689); assay type: functional
[18] = biological target: T3, Low molecular weight phosphotyrosine protein phosphatase (Homo sapiens, UniProt P24666); assay type: functional; conditions: read-out: IC50_Mean
T3 sequence (P24666 whole entry): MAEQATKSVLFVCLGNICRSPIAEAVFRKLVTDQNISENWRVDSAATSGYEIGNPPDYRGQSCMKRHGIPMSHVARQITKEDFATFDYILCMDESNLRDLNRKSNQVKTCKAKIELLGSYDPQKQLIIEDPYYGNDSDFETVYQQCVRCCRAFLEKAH

[19] = biological target: T3, Low molecular weight phosphotyrosine protein phosphatase; assay type: functional; conditions: read-out: IC50_Mean; remark: listed apart in the source
Candida albicans [20] = experiment: fluconazole-resistant Candida strain growth inhibitors – CaCi-8 strain, dry powder, set 4, dose response (AID 488950); assay type: functional, organism-based
Candida albicans [21] = experiment: Candida growth reduction in fluconazole presence – CaCi-2 strain, Alamar Blue, dry powder, set 2, antifungal resistance reversal project, dose response (AID 488930); assay type: functional, organism-based
Candida albicans [22] = experiment: C. albicans growth inhibition with fluconazole – CaCi-2 strain, Alamar Blue, dry powder, set 4, dose response (AID 488943); assay type: functional, organism-based
Candida albicans [23] = experiment: resistant Candida growth with fluconazole co-treatment – CaCi-8 strain, Alamar Blue, dry powder, set 2, dose response (AID 488909); assay type: functional, organism-based
Jurkat [24] = experiment: blockers of NF-kB activation in T cells – Jurkat, luciferase reporter, luminescence, B- and T-cell, dose response (AID 489004); assay type: functional, cell-based; conditions: Homo sapiens;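 also: NF-kB luciferase reporter Jurkat cells stimulated with PMA plus ionomycin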
[25] = HEK-293T viability loss, compound-treated – cell-based, uHTS hits, cytotoxicity control for B/T-cell NF-kB inhibitor project, dose response (AID 489019); assay type: functional;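 also: IC50 reflects cytotoxicity as loss of cell viability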
[26] = biological target: T4, Microphthalmia-associated transcription factor (Homo sapiens, UniProt O75030); experiment: reducers of TRPM1 reporter luminescence, concentration series – cell-based, SK-MEL-5, cherry-picked, set 3, MITF inhibitor project, dose response (AID 493073); assay type: functional;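 also: SK-MEL-5 melanoma cells with luciferase driven by the MITF target TRPM1 promoter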
T4 sequence (O75030 whole entry): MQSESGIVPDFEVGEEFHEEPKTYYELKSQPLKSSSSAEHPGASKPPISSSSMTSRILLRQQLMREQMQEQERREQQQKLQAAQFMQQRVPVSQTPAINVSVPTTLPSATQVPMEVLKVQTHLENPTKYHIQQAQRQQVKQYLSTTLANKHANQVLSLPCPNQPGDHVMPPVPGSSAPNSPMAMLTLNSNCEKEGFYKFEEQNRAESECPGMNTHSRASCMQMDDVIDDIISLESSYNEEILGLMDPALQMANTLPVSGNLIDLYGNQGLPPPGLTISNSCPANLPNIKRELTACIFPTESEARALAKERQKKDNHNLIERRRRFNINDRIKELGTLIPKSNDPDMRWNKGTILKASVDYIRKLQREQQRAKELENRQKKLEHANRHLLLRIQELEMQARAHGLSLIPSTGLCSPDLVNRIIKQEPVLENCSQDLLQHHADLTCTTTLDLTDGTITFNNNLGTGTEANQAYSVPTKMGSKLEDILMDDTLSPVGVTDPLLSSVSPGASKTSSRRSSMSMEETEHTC

A-375 [27] = experiment: MITF: Counter assay: A375 proliferation Measured in Cell-Based System Using Plate Reader - 2084-03_Inhibitor_Dose_DryPowder_Activity. [Related pubchem assays (depositor defined):AID488944]; assay type: functional; conditions: Homo sapiens
A-375 [28] = experiment: proliferation inhibition in MITF-low A375 cells – cell-based, cherry-pick samples, set 2, counter-screen for MITF modulator project, dose response (AID 540335); assay type: functional; conditions: Homo sapiens
[29] = reduction of Shn3 3'UTR-driven luciferase in osteoblasts – cell-based, Clone20 osteoblasts, firefly luciferase, cherry-picked, dose response (AID 624132); assay type: functional;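 also: firefly luciferase luminescence from reporter carrying the Shn3 3'UTR in osteoblasts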
[30] = non-specific 3'UTR reporter inhibition in Clone20-Shn3RL – cell-based, Renilla luciferase, cherry-picked, counter-screen for Shn3 inhibitor project, dose response (AID 624133); assay type: functional
[31] = biological target: Photoreceptor-specific nuclear receptor (Homo sapiens, UniProt Q9Y5X4); assay type: functional, cell-based;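 also: CHO-S cells with Gal4-NCOR and VP16-NR2E3 two-hybrid luciferase reporter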
Chain of Photoreceptor-specific nuclear receptor (Q9Y5X4 whole entry, the tested form may be a part): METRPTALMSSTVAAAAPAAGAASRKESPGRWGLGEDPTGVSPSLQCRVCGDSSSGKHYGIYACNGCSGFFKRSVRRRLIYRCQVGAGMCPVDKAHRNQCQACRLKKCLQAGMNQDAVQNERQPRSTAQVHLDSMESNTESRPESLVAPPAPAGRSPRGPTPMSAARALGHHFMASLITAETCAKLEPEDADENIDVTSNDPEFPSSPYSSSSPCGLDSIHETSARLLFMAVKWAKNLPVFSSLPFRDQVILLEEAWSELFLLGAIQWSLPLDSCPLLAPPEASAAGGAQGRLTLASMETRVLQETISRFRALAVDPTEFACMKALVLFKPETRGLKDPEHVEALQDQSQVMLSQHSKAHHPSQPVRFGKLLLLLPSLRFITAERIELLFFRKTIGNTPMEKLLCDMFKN

## COC(=O)c1ccc(CSc2ccc3nnc(-c4ccc(OC)cc4)n3n2)o1
[1]
  AC50: 6.84 µM (active)
[2]
  AC50: 1.94 µM (active)

## O=C(CCC(=O)OCc1cccc(C(=O)Oc2ccccc2)c1)Nc1cccc2ccccc12
[3]
  IC50: < 0.4 µM (not active)
Escherichia coli [4]
  AC50: 23.5 µM (active)
Escherichia coli [5]
  AC50: 212 µM (active)

## CC(C)(C)NC(=O)CCc1nc(-c2ccc(C(C)(C)C)cc2)no1
HEK293 [6]
  IC50: 39 µM (inactive)
Jurkat [7]
  IC50: 2.77 µM (active)
HEK293 [8]
  IC50: 6.68 µM (active)

## O=c1cc(-c2ccccc2Cl)oc2c(NS(=O)(=O)c3ccccc3C(F)(F)F)ccc(O)c12
[9]
  CC50: 48.5 µM (active)
[10]
  AC50: 18.9 µM (active)
[11]
  AC50: 65.4 µM (active)

## CCN(c1nc(N)c(C(=O)NC(=N)N)nc1Cl)C(C)C [5-(N-ETHYL-N-ISOPROPYL)AMILORIDE]
[12]
  EC50: 64.1 µM (inactive)
Mu-type opioid receptor
  EC50: > 92.5 µM (inactive)
[13]
  EC50: 85.8 µM (inactive)
[14]
  AC50: 1.98 µM (active)
[15]
  AC50: 63.8 µM (active)
Paired box protein Pax-8
  AC50: 20.9 µM (active)
Cytochrome P450 2D6
  AC50: 31.6 µM (inconclusive)
[16]
  AC50: 35.5 µM (inconclusive)

## CCCCCOc1ccc(C2C(C(=O)c3ccc(C)o3)=C(O)C(=O)N2c2cc(C)on2)cc1 (stereo not drawn)
NS3
  IC50: 2.44 µM (active)
DNA topoisomerase
  AC50: 6.14 µM (active)
Vero
  CC50: > 40 µM (active)
[17]
  CC50: > 100 µM (inactive)
Genome polyprotein
  IC50: 31.6 µM (active)
[18]
  IC50: > 80 µM (inactive)
[19]
  IC50: 2.21 µM (active)

## O=C(c1ccc(Cl)nc1)N1CCN(c2ccnc3cc(Cl)ccc23)CC1
Candida albicans [20]
  AC50: 7.3 µM (active)
Candida albicans [21]
  AC50: 2.99 µM (active)
Candida albicans [22]
  AC50: 3.16 µM (active)
Candida albicans [23]
  AC50: < 0.195 µM (active)

## C=CCn1c(C)cc(C(=O)CN2C(=O)c3ccccc3S2(=O)=O)c1C
Jurkat [24]
  IC50: 1.17 µM (active)
[25]
  IC50: > 80 µM (inactive)
[26]
  AC50: 0.666 µM (active)
A-375 [27]
  AC50: > 35 µM (active)
A-375 [28]
  AC50: > 35 µM (active)
[29]
  AC50: 0.974 µM (active)
[30]
  AC50: 23.2 µM (active)
[31]
  IC50: 2.46 µM (active)

Reference: ChEMBL document CHEMBL1201862, “PubChem BioAssay data set” (2004)
